Assay results reported in US6489340B1, “Macrolide compounds for inducing chondrogenic differentiation” (Fujisawa Pharmaceutical., Ltd., priority 1999, dated 2002).

Test system: ATDC5 cells
Assay: Induction of chondrogenic differentiation of ATDC5 cells (Alcian blue staining, proteoglycan amount)
Assay type: cell-based
Conditions: ATDC5 cells incubated 24 days; Alcian blue dye measured at 620 nm; FK506 1-1000 ng/ml
Experimental: The inducing activity by FK506 Substance on chondrogenic differentiation was evaluated in accordance with the below-mentioned method. (1) The ATDC5 cell line provided by RIKEN Cell Bank (Tsukuba, Japan) was grown in a 1:1 mixture of Dulbecco's modified Eagle's medium and Ham's F12 medium (Nikken Biomedical Laboratory, Kyoto, Japan) supplemented with 10 % heat-inactivated fetal bovine serum (Intergen, Purchase, N.Y.). […] (2) The above ATDC5 cells were plated in 12-multiwell plastic plate at a density of 1×10^5 cells/well in the medium. After 4 hr, the medium was replaced with fresh medium containing FK506 or Cyclosporin A (CsA), and the culture was continued for a 24 days with medium change every 2 or 3 days. Cells were fixed with methanol and stained 0.1% Alcian blue (Sigma Chemical Co., St. Louis, Mo.) dissolved in 0.1 M hydrochloric acid for 16 hr at room temperature. Cells were then rinsed three times with distilled water, and the amount of cell-associated dye was measured at 620 nm after extraction with 6 M guanidine-HCl (300 μl/well). ATDC5 cells were incubated with FK506 or CsA for 24 days and the amount of proteoglycan was assayed.

## C=CC[C@@H]1/C=C(\C)C[C@H](C)C[C@H](OC)[C@H]2O[C@@](O)(C(=O)C(=O)N3CCCC[C@H]3C(=O)O[C@H](/C(C)=C/[C@@H]3CC[C@@H](O)[C@H](OC)C3)[C@H](C)[C@@H](O)CC1=O)[C@H](C)C[C@@H]2OC [FK506, 17-allyl-1,14-dihydroxy-12-[2-(4-hydroxy-3-methoxycyclohexyl) -1-methylvinyl]-23,25-dimethoxy-13,19,21,27-tetramethyl-11, 28-dioxa-4-azatricyclo [22.3.1.0^4,9]octacos-18-ene-2,3,10,16-tetraone]
  inducing activity on chondrogenic differentiation (differentiation into chondrocyte; amount of proteoglycan): induced differentiation into chondrocyte in a concentration-dependent manner

## Cyclosporin A [CsA]
  inducing activity on chondrogenic differentiation (differentiation into chondrocyte; amount of proteoglycan): did not induce the differentiation
